From patent US20200131142A1, “FARNESOID X RECEPTOR AGONISTS AND USES THEREOF” (Metacrine, Inc., priority 2017, published 2020) come the findings set out here.

The assay deals with T1, hFXR (Homo sapiens, UniProt Q96RI1).
T1 construct: expressed in transfected cells; host or cells: CV-1 cells
T1 sequence (Q96RI1 1-486): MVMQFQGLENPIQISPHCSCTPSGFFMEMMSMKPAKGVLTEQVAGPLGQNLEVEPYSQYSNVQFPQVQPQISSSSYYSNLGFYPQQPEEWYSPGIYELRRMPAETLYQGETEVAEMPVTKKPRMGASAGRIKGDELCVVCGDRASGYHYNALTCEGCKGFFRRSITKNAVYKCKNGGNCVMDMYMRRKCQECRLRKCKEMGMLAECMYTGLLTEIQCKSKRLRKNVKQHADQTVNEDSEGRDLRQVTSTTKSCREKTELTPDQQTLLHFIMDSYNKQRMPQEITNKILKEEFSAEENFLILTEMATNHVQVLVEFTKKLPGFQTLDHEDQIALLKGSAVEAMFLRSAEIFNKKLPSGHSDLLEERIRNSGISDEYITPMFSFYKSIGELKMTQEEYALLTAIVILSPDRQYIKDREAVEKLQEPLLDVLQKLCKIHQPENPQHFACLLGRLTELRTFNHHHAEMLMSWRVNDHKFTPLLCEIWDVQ
T1 sequence (P19793 1-462 partner): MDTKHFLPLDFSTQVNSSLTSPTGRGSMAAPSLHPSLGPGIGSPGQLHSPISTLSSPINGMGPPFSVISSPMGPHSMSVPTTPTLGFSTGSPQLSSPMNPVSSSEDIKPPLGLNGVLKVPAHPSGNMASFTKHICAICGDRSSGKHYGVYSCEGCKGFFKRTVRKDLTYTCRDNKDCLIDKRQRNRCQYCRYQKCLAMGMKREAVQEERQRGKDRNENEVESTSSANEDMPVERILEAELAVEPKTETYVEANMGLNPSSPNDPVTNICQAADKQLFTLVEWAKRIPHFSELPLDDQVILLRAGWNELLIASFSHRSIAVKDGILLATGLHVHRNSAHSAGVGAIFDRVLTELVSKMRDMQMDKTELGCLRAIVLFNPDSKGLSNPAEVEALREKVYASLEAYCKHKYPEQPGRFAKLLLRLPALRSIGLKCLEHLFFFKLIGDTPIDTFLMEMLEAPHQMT
Briefly: In Vitro FXR Assay (TK): hFXR/hRXR TK-ECRE-luc reporter in transfected CV-1 cells. The class given is cell-based. To be noted: 18 hrs incubation, luminescence, compounds with maximum efficacy <25% of the Fexarmine control classified as '+'. As to the method: Example B-1: In Vitro FXR Assay (TK)
CV-1 cells were seeded at a density of 2,000,000 cells in a T175 flask with DMEM+10% charcoal double-stripped FBS and incubated at 37° C. in 5% CO2 for 18 h (O/N).
After 18 h of incubation, the medium in the T175 flask was changed with fresh DMEM+10% charcoal super-stripped serum. In a polypropylene tube, 2500 μL OptiMEM (Life Technologies, Cat #31985-062) was combined with expression plasmids for hFXR, hRXR, TK-ECRE-luc and pCMX-YFP. The tube was then briefly vortexed and incubated at room temperature for 5 minutes. Transfection reagent (X-tremeGENE HP from Roche, Cat #06 366 236 001) was added to the OptiMEM/plasmid mixture vortexed and incubated at room temperature for 20 minutes. Following incubation, the transfection reagent/DNA mixture complex was added to cells in the T175 flask and the cells were incubated at 37° C. in 5% CO2 for 18 h (O/N).
Compounds were serially diluted in DMSO and added to transfected CV-1 cells. The cells were then incubated for 18 hrs. The next day cells were lysed and examined for luminescence.

pEC50: −log10 of the molar value. Bounds are passed on as bounds.

As a reminder, the pEC50 is the EC50 on a negative log10 scale, so that one unit is a factor of ten. A high value points to a small EC50. With `COc1ncc(-c2cccc(N(C[C@@H]3CC[C@@H](c4ccc(OC)c(C)c4)C(C)C3)C(=O)[C@H]3CC[C@H](O)CC3)c2)s1` (stereo partly drawn) [Compound 9.12, trans-4-Hydroxy-N-((trans-4-(4-methoxy-3-methylphenyl)-3-methylcyclohexyl)methyl)-N-(3-(2-methoxythiazol-5-yl)phenyl)cyclohexanecarboxamide], the pEC50 is at least 6.60.

As for `COc1ccc([C@H]2CC[C@H](CN(c3cccc(-c4cnc(C5CC5)s4)c3)C(=O)[C@H]3CC[C@H](O)CC3)CC2)cc1Cl` [Compound 9.03, trans-N-((trans-4-(3-Chloro-4-methoxyphenyl)cyclohexyl)methyl)-N-(3-(2-cyclopropylthiazol-5-yl)phenyl)-4-hydroxycyclohexanecarboxamide], the pEC50 is at least 6.60.

`COc1ccc([C@H]2CC[C@H](CN(c3cccc(-c4cnc(SC)s4)c3)C(=O)[C@H]3CC[C@H](O)CC3)CC2)cc1C` [Compound 7.11, trans-4-Hydroxy-N-((trans-4-(4-methoxy-3-methylphenyl)cyclohexyl)methyl)-N-(3-(2-(methylthio)thiazol-5-yl)phenyl)cyclohexanecarboxamide] gave a pEC50 of at least 6.60.

For `COc1ccc([C@H]2CC[C@H](CN(c3cccc(-c4cnc(C5CCC5)s4)c3)C(=O)[C@H]3CC[C@H](O)CC3)CC2)cc1C` [Compound 7.08, trans-N-(3-(2-Cyclobutylthiazol-5-yl)phenyl)-4-hydroxy-N-((trans-4-(4-methoxy-3-methylphenyl)cyclohexyl)methyl) cyclohexanecarboxamide], the pEC50 was at least 6.60.

In turn, `COC(=O)c1ncc(-c2cccc(N(C[C@H]3CC[C@H](c4ccc(OC)c(C)c4)CC3)C(=O)[C@H]3CC[C@H](O)CC3)c2)s1` [Compound 7.27, Methyl 5-(3-(trans-4-hydroxy-N-((trans-4-(4-methoxy-3-methylphenyl)cyclohexyl)methyl)cyclohexanecarboxamido)phenyl)thiazole-2-carboxylate] showed a pEC50 of 6.00 to 6.60.

In turn, `COc1ccc([C@H]2CC[C@H](CN(c3cccc(C#Cc4nccs4)c3)C(=O)[C@H]3CC[C@H](O)CC3)CC2)cc1C` [Compound 18, trans-4-Hydroxy-N-((trans-4-(4-methoxy-3-methylphenyl)cyclohexyl)methyl)-N-(3-(thiazol-2-ylethynyl)phenyl)cyclohexanecarboxamide] gave a pEC50 of at least 6.60.

`COc1ccc([C@H]2CC[C@H](CN(c3cccc(C#Cc4ncc(C)s4)c3)C(=O)[C@H]3CC[C@H](O)CC3)CC2)cc1C` [Compound 8.02, trans-4-Hydroxy-N-((trans-4-(4-methoxy-3-methylphenyl)cyclohexyl)methyl)-N-(3-((5-methylthiazol-2-yl)ethynyl)phenyl)cyclohexanecarboxamide] gave a pEC50 of at least 6.60.

In turn, `COc1ccc([C@H]2CC[C@H](CN(c3cccc(-c4cnc(CCO)s4)c3)C(=O)[C@H]3CC[C@H](O)CC3)CC2)cc1C` [Compound 7.20, trans-4-Hydroxy-N-(3-(2-(2-hydroxyethyl)thiazol-5-yl)phenyl)-N-((trans-4-(4-methoxy-3-methylphenyl)cyclohexyl)methyl) cyclohexanecarboxamide] gave a pEC50 of 6.00 to 6.60.

Molecule `COc1ccc([C@H]2CC[C@H](CN(c3cccc(OCc4nccs4)c3)C(=O)[C@H]3CC[C@H](O)CC3)CC2)cc1C` [Compound 16, trans-4-Hydroxy-N-((trans-4-(4-methoxy-3-methylphenyl)cyclohexyl)methyl)-N-(3-(thiazol-2-ylmethoxy)phenyl)cyclohexanecarboxamide] showed a negative logarithm of the EC50 (pEC50) of at least 6.60.

`COc1ccc([C@H]2CC[C@H](CN(c3cc(-c4cnc(C5CC5)s4)ccn3)C(=O)[C@H]3CC[C@H](O)CC3)CC2)nc1C#N` [Compound 9.23, trans-N-((trans-4-(6-Cyano-5-methoxypyridin-2-yl)cyclohexyl)methyl)-N-(4-(2-cyclopropylthiazol-5-yl)pyridin-2-yl)-4-hydroxycyclohexanecarboxamide]: the pEC50 is at least 6.60.

`COc1ccc([C@H]2CC[C@H](CN(c3cccc(-c4cnc(C(F)(F)F)s4)c3)C(=O)[C@H]3CC[C@H](O)CC3)CC2)cc1C` [Compound 7.23, trans-4-Hydroxy-N-((trans-4-(4-methoxy-3-methylphenyl)cyclohexyl)methyl)-N-(3-(2-(trifluoromethyl)thiazol-5-yl)phenyl)cyclohexanecarboxamide] gave a pEC50 of at least 6.60.

In the case of `COc1ccc([C@H]2CC[C@H](CN(c3cccc(-c4cncs4)c3)C(=O)[C@H]3CC[C@H](O)CC3)CC2)cc1C` [Compound 6.02, trans-4-Hydroxy-N-((trans-4-(4-methoxy-3-methylphenyl)cyclohexyl)methyl)-N-(3-(thiazol-5-yl)phenyl)cyclohexanecarboxamide], the pEC50 is 6.00 to 6.60.

With `COc1ccc([C@H]2CC[C@H](CN(c3cccc(-c4cnc(N5CCCCC5)s4)c3)C(=O)[C@H]3CC[C@H](O)CC3)CC2)cc1C` [Compound 7.14, trans-4-Hydroxy-N-((trans-4-(4-methoxy-3-methylphenyl)cyclohexyl)methyl)-N-(3-(2-(piperidin-1-yl)thiazol-5-yl)phenyl)cyclohexanecarboxamide], the pEC50 is at least 6.60.

In the case of `COc1ccc(C23CCC(CN(c4cccc(-c5cnc(C6CC6)s5)c4)C(=O)[C@H]4CC[C@H](O)CC4)(CC2)CC3)cc1C` [Compound 10, trans-N-(3-(2-Cyclopropylthiazol-5-yl)phenyl)-4-hydroxy-N-((4-(4-methoxy-3-methylphenyl)bicyclo[2.2.2]octan-1-yl)methyl)cyclohexanecarboxamide], the pEC50 is at least 6.60.

For the molecule `COc1ccc([C@H]2CC[C@H](CN(c3cccc(-c4cnc(OCCO)s4)c3)C(=O)[C@H]3CC[C@H](O)CC3)CC2)cc1C` [Compound 7.18, trans-4-Hydroxy-N-(3-(2-(2-hydroxyethoxy)thiazol-5-yl)phenyl)-N-((trans-4-(4-methoxy-3-methylphenyl)cyclohexyl)methyl) cyclohexanecarboxamide], the pEC50 was at least 6.60.

Consider `COc1ccc([C@H]2CC[C@H](CN(c3cccc(-c4cnc(OC(C)C)s4)c3)C(=O)[C@H]3CC[C@H](O)CC3)CC2)cc1C` [Compound 7.17, trans-4-Hydroxy-N-(3-(2-isopropoxythiazol-5-yl)phenyl)-N-((trans-4-(4-methoxy-3-methylphenyl)cyclohexyl)methyl) cyclohexanecarboxamide], for which the pEC50 is at least 6.60.

For the molecule `C#Cc1cc([C@H]2CC[C@H](CN(c3cccc(-c4cnc(OC)s4)c3)C(=O)[C@H]3CC[C@H](O)CC3)CC2)ccc1OC` [Compound 9.05, trans-N-((trans-4-(3-Ethynyl-4-methoxyphenyl)cyclohexyl)methyl)-4-hydroxy-N-(3-(2-methoxythiazol-5-yl)phenyl)cyclohexanecarboxamide], the pEC50 is at least 6.60.

In turn, `COc1ncc(-c2cccc(N(C[C@@H]3CC[C@@H](c4ccc(OC)c(C)c4)CC3C)C(=O)[C@H]3CC[C@H](O)CC3)c2)s1` (stereo partly drawn) [Compound 9.11, trans-4-Hydroxy-N-((trans-4-(4-methoxy-3-methylphenyl)-2-methylcyclohexyl)methyl)-N-(3-(2-methoxythiazol-5-yl)phenyl)cyclohexanecarboxamide] showed a negative-log EC50 (pEC50) of at least 6.60.

Molecule `COc1ccc([C@H]2CC[C@H](CN(c3cccc(-c4cnc(C5CC5)s4)c3)C(=O)[C@H]3CC[C@H](O)CC3)CC2)nc1C#N` [Compound 9.21, trans-N-((trans-4-(6-Cyano-5-methoxypyridin-2-yl)cyclohexyl)methyl)-N-(3-(2-cyclopropylthiazol-5-yl)phenyl)-4-hydroxycyclohexanecarboxamide] gave a pEC50 of at least 6.60.

Molecule `COc1ncc(-c2cccc(N(C[C@H]3CC[C@H](c4ccc(OC)c(C#N)c4)CC3)C(=O)[C@H]3CC[C@H](O)CC3)c2)s1` [Compound 9.06, trans-N-((trans-4-(3-Cyano-4-methoxyphenyl)cyclohexyl)methyl)-4-hydroxy-N-(3-(2-methoxythiazol-5-yl)phenyl)cyclohexanecarboxamide] showed a pEC50 of at least 6.60.
